Measurements reported in patent US9624215B2, “Amine derivative or salt thereof” (TOYAMA CHEMICAL CO., LTD., priority 2012, dated 2017).

These molecules were tested on normal human neonatal foreskin epidermal keratinocytes (NHEK-F) (assay: Cell proliferation inhibition test). Conditions: Keratinocyte, 72 h, NHEK-F cells, three days incubation, ATPlite or CellTiterGlo, read-out: IC50 (concentration of the compound at which the cell count is reduced by 50%).
Assay type: cell-based
Method: 2×10^3 normal human neonatal foreskin epidermal keratinocytes (NHEK-F) (Kurabo, KK-4009) were suspended in 100 μL of Humedia-EG2 (Kurabo, KK-2150S) medium, plated in a 96-well plate and incubated overnight. The test compound was added on the following day and the cells were incubated for further three days. The cell count was determined using ATPlite (PerkinElmer, 6016739) or CellTiterGlo (Promega, G7573).
The inhibition rate was calculated from the following formula to determine the concentration of the compound at which the cell count is reduced by 50% (IC50). Inhibition rate (%)=100−(cell count in the presence of test compound/cell count in the absence of test compound)×100
Molecule `O=C(O)c1cc(Cl)ccc1Nc1ccc2c(ccn2Cc2cccc(OCc3ccc4ccccc4n3)c2)c1` [Example 249, 5-chloro-2-((1-(3-(quinolin-2-ylmethoxy)benzyl)-1H-indol-5-yl)amino)benzoic acid] has an IC50 of at most 0.01 µM.
In the case of `O=C(O)c1cc(Cl)ccc1Nc1ccc2c(ccn2Cc2ccc3ccccc3n2)c1` [Example 251, 5-chloro-2-((1-(quinolin-2-ylmethyl)-1H-indol-5-yl)amino)benzoic acid], the IC50 is reported as 0.01 to 0.1 µM.
Work on `O=C(O)c1cc(Cl)ccc1Nc1ccc2c(ccn2CC2CCCCC2)c1` [Example 257, 5-chloro-2-((1-(cyclohexylmethyl)-1H-indol-5-yl)amino)benzoic acid] yielded an IC50 of at most 0.01 µM.
Molecule `O=C(O)c1cc(Cl)ccc1Nc1ccc2c(ccn2-c2cscn2)c1` [Example 271, 5-chloro-2-((1-(thiazol-4-yl)-1H-indol-5-yl)amino)benzoic acid] has an IC50 of 0.01 to 0.1 µM.
`O=C(O)c1cc(Cl)ccc1Nc1ccc2c(ccn2Cc2cccc(OCCN3CCOCC3)c2)c1` [Example 296, 5-chloro-2-((1-(3-(2-morpholinoethoxyl)benzyl)-1H-indol-5-yl)amino)benzoic acid] was tested, and the IC50 was 0.01 to 0.1 µM.
`O=C(O)c1cc(Cl)ccc1Nc1ccc2c(ccn2Cc2cscn2)c1` [Example 302, 5-chloro-2-((1-(thiazol-4-ylmethyl)-1H-indol-5-yl)amino)benzoic acid] showed an IC50 of 0.01 to 0.1 µM.
In the case of `O=C(O)c1cc(Cl)ccc1Nc1ccc2c(ccn2-c2ccccn2)c1` [Example 311, 5-chloro-2-((1-(pyridin-2-yl)-1H-indol-5-yl)amino)benzoic acid], the IC50 is reported as at most 0.01 µM.
For `O=C(O)c1cc(Cl)ccc1Nc1ccc2c(ccn2-c2cnccn2)c1` [Example 313, 5-chloro-2-((1-(pyrazin-2-yl)-1H-indol-5-yl)amino)benzoic acid], the IC50 was 0.1 to 1 µM.
`O=C(O)c1cc(Cl)ccc1Nc1ccc2c(ccn2-c2ccncc2)c1` [Example 315, 5-chloro-2-((1-(pyridin-4-yl)-1H-indol-5-yl)amino)benzoic acid] gave an IC50 of 0.01 to 0.1 µM.
Molecule `O=C(O)c1cc(Cl)ccc1Nc1ccc2c(ccn2-c2cnc3ccccc3c2)c1` [Example 317, 5-chloro-2-((1-(quinolin-3-yl)-1H-indol-5-yl)amino)benzoic acid] has an IC50 of at most 0.01 µM.
With `CSc1nccc(-n2ccc3cc(Nc4ccc(Cl)cc4C(=O)O)ccc32)n1` [Example 319, 5-chloro-2-((1-(2-(methylthio)pyrimidin-4-yl)-1H-indol-5-yl)amino)benzoic acid] the IC50 was 0.01 to 0.1 µM.
Work on `O=C(O)c1cc(Cl)ccc1Nc1ccc2c(ccn2Cc2ccccn2)c1` [Example 341, 5-chloro-2-((1-(pyridin-2-ylmethyl)-1H-indol-5-yl)amino)benzoic acid] yielded an IC50 of 0.01 to 0.1 µM.
`COc1ccc(Cn2ccc3cc(Nc4ccc(Cl)cc4C(=O)O)ccc32)cc1` [Example 347, 5-chloro-2-((1-(4-methoxybenzyl)-1H-indol-5-yl)amino)benzoic acid] showed an IC50 of 0.01 to 0.1 µM.
`O=C(O)c1cc(Cl)ccc1Nc1ccc2c(ccn2Cc2cccnc2)c1` [Example 349, 5-chloro-2-((1-(pyridin-3-ylmethyl)-1H-indol-5-yl)amino)benzoic acid] was tested, and the IC50 was 0.1 to 1 µM.
For `O=C(O)c1cc(-c2ccccc2)ccc1Nc1ccc2c(ccn2Cc2ccccc2)c1` [Example 359, 4-((1-Benzyl-1H-indol-5-yl)amino)-[1,1′-biphenyl]-3-carboxylic acid], the IC50 was 0.01 to 0.1 µM.
Work on `O=C(O)c1cc(C2CC2)cnc1Nc1cccc2c(-c3ccccc3)cccc12` [Example 367, 5-cyclopropyl-2-((5-phenylnaphthalen-1-yl)amino)nicotinic acid] yielded an IC50 of at most 0.01 µM.
With `O=C(O)c1cc(C2CC2)cnc1Nc1cccc2c(=O)n(-c3ccccc3)cnc12` [Example 369, 5-cyclopropyl-2-((4-oxo-3-phenyl-3,4-dihydroquinazolin-8-yl)amino)nicotinic acid] the IC50 was 0.1 to 1 µM.
In the case of `O=C(O)c1cc(C2CC2)cnc1Nc1cccc2ccccc12` [Example 371, 5-cyclopropyl-2-(naphthalen-1-ylamino)nicotinic acid], the IC50 is reported as 0.1 to 1 µM.
`O=C(O)c1cc(C2CC2)ccc1Nc1ccc2[nH]cc(-c3ccccc3)c2c1` [Example 377, 5-cyclopropyl-2-((3-phenyl-1H-indol-5-yl)amino)benzoic acid] was tested, and the IC50 was 0.01 to 0.1 µM.
`CC(C)c1cnc(Nc2ccc3c(ccn3Cc3ccccc3)c2)c(C(=O)O)c1` [Example 379, 2-((1-benzyl-1H-indol-5-yl)amino)-5-isopropylnicotinic acid] showed an IC50 of 0.01 to 0.1 µM.
`CCc1cnc(Nc2ccc3c(ccn3Cc3ccccc3)c2)c(C(=O)O)c1` [Example 381, 2-((1-benzyl-1H-indol-5-yl)amino)-5-ethylnicotinic acid] showed an IC50 of 0.01 to 0.1 µM.
`O=C(O)c1cc(C2CC2)cnc1Nc1ccc2c(c1)cc(-c1ccccc1)n2Cc1ccccc1` [Example 387, 2-((1-benzyl-2-phenyl-1H-indol-5-yl)amino)-5-cyclopropylnicotinic acid] showed an IC50 of 0.01 to 0.1 µM.
With `CC(C)(C)c1cc2cc(Nc3ncc(C4CC4)cc3C(=O)O)ccc2[nH]1` [Example 389, 2-((2-(tert-butyl)-1H-indol-5-yl)amino)-5-cyclopropylnicotinic acid] the IC50 was 0.1 to 1 µM.
Molecule `Cc1cc2cc(Nc3ncc(C4CC4)cc3C(=O)O)ccc2n1C` [Example 391, 5-cyclopropyl-2-((1,2-dimethyl-1H-indol-5-yl)amino)nicotinic acid] has an IC50 of 0.1 to 1 µM.
`Cn1cc(C2CC2)c2cc(Nc3ncc(C4CC4)cc3C(=O)O)ccc21` [Example 393, 5-cyclopropyl-2-((3-cyclopropyl-1-methyl-1H-indol-5-yl)amino)nicotinic acid] gave an IC50 of 0.01 to 0.1 µM.
For `O=C(O)c1cc(C2CC2)cnc1Nc1ccc2c(cnn2Cc2ccccc2)c1` [Example 395, 2-((1-benzyl-1H-indazol-5-yl)amino)-5-cyclopropylnicotinic acid], the IC50 was 0.01 to 0.1 µM.
`O=C(O)c1cc(C2CC2)cnc1Nc1ccc2c(c1)OCC(=O)N2c1ccccc1` [Example 399, 5-cyclopropyl-2-((3-oxo-4-phenyl-3,4-dihydro-2H-benzo[b][1,4]oxazin-7-yl)amino)nicotinic acid] gave an IC50 of 0.1 to 1 µM.
`O=C(O)c1cc(C2CC2)cnc1Nc1cccc2c1ccc(=O)n2-c1ccccc1` [Example 401, 5-cyclopropyl-2-((2-oxo-1-phenyl-1,2-dihydroquinolin-5-yl)amino)nicotinic acid] showed an IC50 of 0.1 to 1 µM.
Work on `O=C(O)c1cc(C2CC2)cnc1Nc1ccc2c(c1)Cc1ccccc1-2` [Example 405, 2-((9H-fluoren-2-yl)amino)-5-cyclopropylnicotinic acid] yielded an IC50 of 0.01 to 0.1 µM.
In the case of `Cn1ccc2cc(Nc3ncc(C4CC4)cc3C(=O)O)cc(C3CC3)c21` [Example 409, 5-cyclopropyl-2-((7-cyclopropyl-1-methyl-1H-indol-5-yl)amino)nicotinic acid], the IC50 is reported as 0.01 to 0.1 µM.
With `CCc1cc(Nc2ncc(C3CC3)cc2C(=O)O)cc2ccn(CC)c12` [Example 413, 5-cyclopropyl-2-((1,7-diethyl-1H-indol-5-yl)amino)nicotinic acid] the IC50 was 0.01 to 0.1 µM.
`O=C(O)c1cc(C2CC2)cnc1Nc1ccc2c(ccn2CC2CCCCO2)c1` (stereo not shown) [Example 414, 5-cyclopropyl-2-((1-((tetrahydro-2H-pyran-2-yl)methyl)-1H-indol-5-yl)amino)nicotinic acid] showed an IC50 of 0.01 to 0.1 µM.
Molecule `CCCn1ccc2c(Nc3ncc(C4CC4)cc3C(=O)O)cccc21` [Example 419, 5-cyclopropyl-2-((1-propyl-1H-indol-4-yl)amino)nicotinic acid] has an IC50 of 0.01 to 0.1 µM.
Molecule `O=C(O)c1cc(C2CC2)cnc1Nc1cccc2c1ccn2CC1CCCCO1` (stereo not shown) [Example 423, 5-cyclopropyl-2-((1-((tetrahydro-2H-pyran-2-yl)methyl)-1H-indol-4-yl)amino)nicotinic acid] has an IC50 of 0.01 to 0.1 µM.
`O=C(O)c1cc(C2CC2)cnc1Nc1cccc2c1ccn2CC1CCOC1` (stereo not shown) [Example 427, 5-cyclopropyl-2-((1-((tetrahydrofuran-3-yl)methyl)-1H-indol-4-yl)amino)nicotinic acid] showed an IC50 of 0.01 to 0.1 µM.
With `O=C(O)c1cc(C2CC2)cnc1Nc1cccc2c1ccn2CC1CCCCC1` [Example 429, 2-((1-(cyclohexylmethyl)-1H-indol-4-yl)amino)-5-cyclopropylnicotinic acid] the IC50 was at most 0.01 µM.
In the case of `CC(C)Cn1ccc2c(Nc3ncc(C4CC4)cc3C(=O)O)cccc21` [Example 431, 5-cyclopropyl-2-((1-isobutyl-1H-indol-4-yl)amino)nicotinic acid], the IC50 is reported as at most 0.01 µM.
With `O=C(O)c1cc(C2CC2)cnc1Nc1cccc2c1ccn2-c1ccccc1` [Example 433, 5-cyclopropyl-2-((1-phenyl-1H-indol-4-yl)amino)nicotinic acid] the IC50 was at most 0.01 µM.
For `CC(C)n1ccc2c(Nc3ncc(C4CC4)cc3C(=O)O)cccc21` [Example 435, 5-cyclopropyl-2-((1-isopropyl-1H-indol-4-yl)amino)nicotinic acid], the IC50 was 0.01 to 0.1 µM.
For `O=C(O)c1cc(C2CC2)cnc1Nc1cccc2c1ccn2CC1CC1` [Example 437, 5-cyclopropyl-2-((1-(cyclopropylmethyl)-1H-indol-4-yl)amino)nicotinic acid], the IC50 was 0.01 to 0.1 µM.
With `O=C(O)c1cc(C2CC2)cnc1Nc1ccc2c(ccn2Cc2ccccc2C(F)(F)F)c1` [Example 449, 5-cyclopropyl-2-((1-(2-(trifluoromethyl)benzyl)-1H-indol-5-yl)amino)nicotinic acid] the IC50 was 0.01 to 0.1 µM.
In the case of `O=C(O)c1cc(C2CC2)cnc1Nc1ccc2c(ccn2Cc2ccc(C(F)(F)F)cc2)c1` [Example 451, 5-cyclopropyl-2-((1-(4-(trifluoromethyl)benzyl)-1H-indol-5-yl)amino)nicotinic acid], the IC50 is reported as 0.01 to 0.1 µM.
Molecule `N#Cc1ccccc1Cn1ccc2cc(Nc3ncc(C4CC4)cc3C(=O)O)ccc21` [Example 452, 2-((1-(2-cyanobenzyl)-1H-indol-5-yl)amino)-5-cyclopropylnicotinic acid] has an IC50 of 0.01 to 0.1 µM.
